The results in this text go back to patent US20090023753A1, “1,3-Thiazole-5-Carboxamides Useful as Cancer Chemotherapeutic Agents” (Bayer HealthCare AG, priority 2005, published 2009).

Assay [1] deals with P-AKT/PKB in H209 small cell lung carcinoma cells. Briefly: P-AKT/PKB Cytoblot Assay with H209 cells (SCF-stimulated). Type of assay: cell-based. As to conditions: Homo sapiens, NCI-H209, 1 hour compound incubation, SCF 25 ng/mL for 5 minutes, p-(S473) AKT. From the text: The utility of the compounds of the present invention can be illustrated, for example, by their activity in the P-AKT/PKB Cytoblot Assay described below. The involvement of the P-AKT/PKB[PI3K/AKt] pathway as a target for cancer chemotherapy has been recognized in the art. For example, see F. Chang et al, Involvement of PI3K/Akt pathway in cell cycle progression, apoptosis, and neoplastic transformation: a target for cancer chemotherapy, Leukemia, 2003, 17: p. 590-603; K. A. West et al, Activation of the PI3K/Akt pathway and chemotherapeutic resistance, Drug Resistance Updates, 2002, 5: p. 234-248; and P. Sen et al, Involvement of the Akt/PKB signaling pathway with disease processes, Molecular and Cellular Biochemistry, 2003, 253: p. 241-246.
P-AKT/PKB Cytoblot Assay Protocol with H209 Cells
H209 small cell lung carcinoma cells in log phase were plated at 50,000 cells/well in 96-well poly-lysine coated, clear bottom/black-sided plates (Becton-Dickinson, USA Cat # 354640) in 100 Ill RPMI medium containing 0.1% (w/v) BSA, and incubated overnight at 37° C. in 5% CO2 incubator. The following day, compounds (10 mM stock solutions in DMSO) were added to the plates to generate final concentrations of 0.0, 0.01, 0.03, 0.1, 0.3, 1.0, 3.0 and 10 μM for IC50 determinations and incubated for 1 hour at 37° C. Cells were then left untreated or stimulated with Stem Cell Factor (SCF: Biosource Cat # PHC2116) at a final concentration of 25 ng/mL for 5 minutes at 37° C. in 5% CO2 incubator. The media was then removed using a vacuum manifold and the cells were washed once with Tris Buffered Saline (TBS). Cells were then fixed by adding 200 μl of cold 3.7% (v/v) formaldehyde in TBS to each well for 15 minutes at 4° C. After removal of the formaldehyde, the cells were treated with the addition of 50 μl of methanol (at −20° C.) to each well for 5 minutes. After removal of the methanol, 200 μl of 1% (w/v) BSA in TBS was added to each well to block non-specific antibody binding sites and the plate was incubated at room temperature for 30 minutes.
After removal of the blocking buffer, 50 μl of p-(S473) AKT rabbit polyclonal antibody (Cell Signaling, USA Cat # 9277S) was added at a dilution of 1:250 in 0.1% (w/v) BSA in TBS, and the plate was incubated at room temperature for 1 hour. Plates were then washed 3 times with cold TBS containing 0.05% (v/v) Tween 20 (TBS-T) and 100 μl of Horseradish peroxidase (HRP)-conjugated goat-anti-rabbit antibody (Amersham, USA Cat # NA934V) at a dilution of 1:250 in TBS-T was added and the plate was incubated at room temperature for 1 h. After washing with ice-cold TBS-T four times, 100 μl of Enhanced Chemiluminescence (ECL) reagent (Amersham, USA Cat# RPN2209) was added to each well and mixed on a mini-orbital shaker for 1 min. The plate was then read on a Perkin Elmer Victor 5 Multilabel Counter (#1420-0421).

For assay [2], the target named is T1, Flk-1 (murine VEGFR-2) kinase domain (Mus musculus, UniProt P35918).
T1 construct: 7 nM Flk-1 (kinase domain)
In words: Flk-1 (murine VEGFR-2) Biochemical Assay (TR-FRET). The settings on record: 10 μM ATP, 7 nM Flk-1 (kinase domain). In general terms: In TR-FRET formats the signal depends on donor and acceptor labels being close together.

The subject of assay [3] is phospho-ERK in MDA-MB-231 cells. Briefly: Phospho-ERK Cytoblot Assay with MDA-MB 231 cells. As to conditions: Homo sapiens, 1 hour compound incubation, phospho-p44/42 MAP kinase (Thr202/Tyr204). Type of assay: cell-based. From the text: The utility of the compounds of the present invention can also be illustrated, for example, by their activity in the phosph-ERK Assay described below. Growth-factor induction of the RAS/MEK/ERK signaling pathway leads to the induction of phosphorylation of a number of proteins including phospho-ERK (See C. J. Marshall, MAP kinase kinase kinase, MAP kinase kinase and MAP kinase, Current Opinions in Genetic Development, 1994, 4: p. 82-89). The importance of this pathway in cancer biology has been recognized in the art. Activation of the RAS signaling pathway is an important mechanism by which cancer develops (R. Herrera, et al, Unraveling the complexities of the Raf/MAP kinase pathway for pharmacological intervention, Trends Mol. Med., 2002, 8: p. S27-31). Mutational activation of RAS or downstream effectors as well as growth factor induction of this pathway leads to increased tumor cell proliferation and survival (A. A. Adjei, Blocking oncogenic RAS signaling for cancer therapy, J. Natl. Cancer Inst., 2001, 93(14): p. 1062-1074; J Schlessinger, Cell signaling by receptor tyrosine kinases, Cell, 2000, 103: p. 211-225). Phospho-ERK Cytoblot Assay Protocol with MDA-MB 231 Cells MDA-MB-231 cells in log phase were plated at 25,000 cells/well in 96-well opaque plates (Falcon, USA Cat # 353296) in 100 μL RPMI medium containing 10% (w/v) FBS, and incubated overnight at 37° C. in 5% CO2 incubator. The following day, the growth medium was removed from the plate by aspiration and replaced with RPMI medium containing 0.1% BSA and example compounds diluted to generate final concentrations of 0.0, 0.001, 0.003, 0.01, 0.03, 0.1, 0.3, 1 and 3 μM. Cells were incubated with compound for 1 hour at 37° C. in a 5% CO2 incubator. The media was then removed from the plate by aspiration and the cells were washed once with 180 μL/well cold Tris Buffered Saline (TBS). After removal of the wash buffer, the cells were fixed by adding 180 μL of cold 3.7% (v/v) formaldehyde in TBS to each well for 1 hour at 4° C. After removal of the formaldehyde, the cells were treated with the addition of 60 μL of −20° C. methanol to each well for 5 minutes at 4° C. The methanol was removed and the cells were washed with 180 μL/well of 5% (w/v) BSA in TBS. To block non-specific antibody binding sites, each well was treated with 180 μL/well 5% BSA (w/v) in TBS for thirty minutes at room temperature. After removal of the blocking buffer, 50 μL of an anti-phospho-p44/42 MAP kinase (Thr202/Tyr204) rabbit polyclonal antibody (Cell Signaling, USA Cat # 9101) was added to each well at a dilution of 1:1000 in 5% (w/v) BSA in TBS, and the plate was incubated at 4° C. overnight. Plates were then washed three times with 300 μL/well TBS at room temperature. The plates were then incubated with 50 μL of Horseradish peroxidase (HRP)-conjugated goat-anti-rabbit antibody (Amersham, USA Cat. # NA934V) at a dilution of 1:1000 in 5% BSA-TBS at room temperature for 1 hr. After washing the plate three times with 300 μL/well TBS, 60 μL of Enhanced Chemiluminescence (ECL) reagent (Amersham, USA Cat# RPN2209) was added to each well and incubated at room temperature for five minutes. The plate was then read on a Perkin Elmer Victor 5 Multilabel Counter (#1420-0421). […] The utility of the compounds of the present invention can also be illustrated, for example, by their activity in the flk-1 (murine VEGFR2) Assay described below. The VEGF-VEGFR2 signaling pathway has been extensively characterized as an important regulator of angiogenesis and tumor angiogeneisis (See G. Yancopoulos et al, Vascular-specific growth factors and blood vessel formation, Nature, 2000, 407: p. 242-248; D. Shweiki et al, Induction of vascular endothelial growth factor expression by hypoxia and by glucose deficiency in multi cell spheroids: Implications for tumor angiogenesis, Proc. Natl. Acad. Sci, 1995, 92: p. 768-772). Inhibition of tumor cell growth by blocking this pathway has been well documented in the art. […]

T1 sequence (P35918 832-1160 limits assumed): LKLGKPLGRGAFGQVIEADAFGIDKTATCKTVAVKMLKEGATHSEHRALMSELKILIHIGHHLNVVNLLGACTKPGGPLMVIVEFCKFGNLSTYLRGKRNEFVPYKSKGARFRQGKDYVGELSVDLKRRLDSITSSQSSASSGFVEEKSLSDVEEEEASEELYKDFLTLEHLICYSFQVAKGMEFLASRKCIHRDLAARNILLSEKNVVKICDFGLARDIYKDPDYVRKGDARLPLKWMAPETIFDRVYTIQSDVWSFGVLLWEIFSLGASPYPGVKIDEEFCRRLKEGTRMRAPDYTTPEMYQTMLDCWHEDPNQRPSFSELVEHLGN

A word on the IC50: it is the concentration that inhibits the measured activity by half. High values mean weaker potency in that assay, low ones greater potency in that assay. In the case of `CCNC(=O)Nc1cc(CNc2ncsc2C(=O)Nc2ccc3c(c2)OC(F)(F)O3)ccn1` [Example 17, N-(2,2-difluoro-1,3-benzodioxol-5-yl)-4-{[(2-{[(ethylamino)carbonyl]amino}pyridin-4-yl)methyl]amino}-1,3-thiazole-5-carboxamide], the IC50 in assay [1] is less than 500 nM; in assay [2], less than 500 nM; in assay [3], less than 3000 nM.
As to `CNC(=O)Nc1cc(CNc2ncsc2C(=O)Nc2ccc3c(c2)OC(F)(F)C(F)(F)O3)ccn1` [Example 20, 4-{[(2-{[(methylamino)carbonyl]amino}pyridin-4-yl)methyl]amino}-N-(2,2,3,3-tetrafluoro-2,3-dihydro-1,4-benzodioxin-6-yl)-1,3-thiazole-5-carboxamide], the results for the half-inhibitory concentration (IC50) in assay [1], in assay [2] and in assay [3] were less than 500 nM, less than 500 nM and less than 3000 nM, respectively.
As to `O=C(NCCCCN1CCCC1)c1cc(CNc2ncsc2C(=O)Nc2ccc3c(c2)OC(F)(F)O3)ccn1` [Example 5, 4-{[(5-{[(2,2-difluoro-1,3-benzodioxol-5-yl)amino]carbonyl}-1,3-thiazol-4-yl)amino]methyl}-N-(4-pyrrolidin-1-ylbutyl)pyridine-2-carboxamide], the 50% inhibitory concentration (IC50) in assay [2] is less than 500 nM.
On to `CC(=O)OCC(=O)Nc1cc(CNc2ncsc2C(=O)Nc2ccc3c(c2)OC(F)(F)O3)ccn1` [Example 13, 2-[(4-{[(5-{[(2,2-difluoro-1,3-benzodioxol-5-yl)amino]carbonyl}-1,3-thiazol-4-yl)amino]methyl}pyridin-2-yl)amino]-2-oxoethyl acetate], for which the IC50 in assay [1] is less than 500 nM; in assay [2] it was less than 500 nM; in assay [3], less than 3000 nM.
Regarding `CNC(=O)c1cc(CNc2ncsc2C(=O)Nc2ccc3c(c2)OC(F)(F)O3)ccn1` [Example 1, 4-{[(5-{[(2,2-difluoro-1,3-benzodioxol-5-yl)amino]carbonyl}-1,3-thiazol-4-yl)amino]methyl}-N-methylpyridine-2-carboxamide], the half-maximal inhibitory concentration (IC50) in assay [1] was less than 500 nM; in assay [2], less than 500 nM; in assay [3], less than 3000 nM.
`CC(=O)OCC(=O)Nc1cc(CNc2ncsc2C(=O)Nc2ccc3c(c2)OC(F)(F)C(F)(F)O3)ccn1` [Example 14, 2-oxo-2-[(4-{[(5-{[(2,2,3,3-tetrafluoro-2,3-dihydro-1,4-benzodioxin-6-yl)amino]carbonyl}-1,3-thiazol-4-yl)amino]methyl}pyridin-2-yl)amino]ethyl acetate]: the IC50 was less than 500 nM in assay [1], less than 500 nM in assay [2] and less than 3000 nM in assay [3].
On to `CCNC(=O)Nc1cc(CNc2ncsc2C(=O)Nc2ccc3c(c2)OC(F)(F)C(F)(F)O3)ccn1` [Example 21, 4-{[(2-{[(ethylamino)carbonyl]amino}pyridin-4-yl)methyl]amino}-N-(2,2,3,3-tetrafluoro-2,3-dihydro-1,4-benzodioxin-6-yl)-1,3-thiazole-5-carboxamide], for which the IC50 in assay [1] is less than 500 nM; in assay [2], less than 500 nM; in assay [3], less than 3000 nM.
As for `CS(=O)(=O)Nc1cc(CNc2ncsc2C(=O)Nc2ccc3c(c2)OC(F)(F)C(F)(F)O3)ccn1` [Example 12, 4-[({2-[(methylsulfonyl)amino]pyridin-4-yl}methyl)amino]-N-(2,2,3,3-tetrafluoro-2,3-dihydro-1,4-benzodioxin-6-yl)-1,3-thiazole-5-carboxamide], the IC50 in assay [1] and in assay [2] was less than 500 nM throughout.
Turning to `Nc1cc(CNc2ncsc2C(=O)Nc2ccc3c(c2)OC(F)(F)C(F)(F)O3)ccn1` [Example 16, 4-{[(2-aminopyridin-4-yl)methyl]amino}-N-(2,2,3,3-tetrafluoro-2,3-dihydro-1,4-benzodioxin-6-yl)-1,3-thiazole-5-carboxamide], the IC50 in assay [1] and in assay [2] was less than 500 nM in each case.
Regarding `CN(C)CCCCNC(=O)c1cc(CNc2ncsc2C(=O)Nc2ccc3c(c2)OC(F)(F)O3)ccn1` [Example 6, 4-{[(5-{[(2,2-difluoro-1,3-benzodioxol-5-yl)amino]carbonyl}-1,3-thiazol-4-yl)amino]methyl}-N-[4-(dimethylamino)butyl]pyridine-2-carboxamide], the IC50 in assay [1] and in assay [2] was less than 500 nM each time.
Molecule `Nc1cc(CNc2ncsc2C(=O)Nc2ccc3c(c2)OC(F)(F)O3)ccn1` [Example 15, 4-{[(2-aminopyridin-4-yl)methyl]amino}-N-(2,2-difluoro-1,3-benzodioxol-5-yl)-1,3-thiazole-5-carboxamide] came in with an IC50 in assay [1] of less than 500 nM.
For the molecule `NC(=O)c1cc(CNc2ncsc2C(=O)Nc2ccc3c(c2)OC(F)(F)O3)ccn1` [Example 3, 4-{[(5-{[(2,2-difluoro-1,3-benzodioxol-5-yl)amino]carbonyl}-1,3-thiazol-4-yl)amino]methyl}pyridine-2-carboxamide], the IC50 in assay [1] and in assay [2] was less than 500 nM each time.
